Experimental data: ChEMBL document CHEMBL5665443, “Enzyme Inhibitor Single Concentration assay results for EUbOPEN Chemogenomics Library” (2024)
Where a SMILES comes first, the peptide text is derived from it. [ ]: non-standard residue; d: D form. The star is where a group is joined. dPhe(4-NHCONH2) = NC(=O)Nc1ccc(C[C@@H](N)C(=O)O)cc1; Dihydroorotyl(S) = O=C1C[C@@H](C(=O)*)NC(=O)N1; dPhe(4-Cl) = N[C@H](Cc1ccc(Cl)cc1)C(=O)O; Phe(4-NH2) = Nc1ccc(C[C@H](N)C(=O)O)cc1; d2Nal = N[C@H](Cc1ccc2ccccc2c1)C(=O)O; Lys(iPr) = CC(C)NCCCC[C@H](N)C(=O)O; d3Pal = N[C@H](Cc1cccnc1)C(=O)O

Tests used:
[1] = molecular target: Endonuclease 8-like 1 (Homo sapiens) (UniProt Q96FI4); conditions: Compound Concentration 10.0 uM, Hit No;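 note: fluorescence at 594 nm from quenched duplex DNA oligonucleotides released by NEIL1 cleavage and strand separation, reported as reduction of this enzyme activity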
Chain of Endonuclease 8-like 1 (Homo sapiens) (Q96FI4 whole entry): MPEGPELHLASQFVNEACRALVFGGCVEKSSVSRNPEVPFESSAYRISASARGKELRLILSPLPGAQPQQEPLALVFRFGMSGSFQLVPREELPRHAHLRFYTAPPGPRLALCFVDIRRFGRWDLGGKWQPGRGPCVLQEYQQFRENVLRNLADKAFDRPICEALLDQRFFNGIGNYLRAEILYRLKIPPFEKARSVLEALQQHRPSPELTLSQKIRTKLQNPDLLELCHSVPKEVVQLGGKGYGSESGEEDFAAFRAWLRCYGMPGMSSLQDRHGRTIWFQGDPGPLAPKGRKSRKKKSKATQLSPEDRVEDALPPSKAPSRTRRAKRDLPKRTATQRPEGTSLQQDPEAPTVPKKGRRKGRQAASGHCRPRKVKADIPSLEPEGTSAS
Description: Inhibition of NEIL1 by quantifying inhibition of NEIL1-mediated cleavage and dissociation of quenched duplex DNA oligonucleotides, measured as fluorescence at 594 nm.

[2] = molecular target: T1, Single-strand selective monofunctional uracil DNA glycosylase (Homo sapiens) (UniProt Q53HV7); conditions: Compound Concentration 10.0 uM;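 note: enzymatic SMUG1 assay coupled with APE1, reading fluorescence at 594 nm released when a quenched double-stranded DNA oligonucleotide substrate is cleaved and separated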
T1 sequence (whole entry): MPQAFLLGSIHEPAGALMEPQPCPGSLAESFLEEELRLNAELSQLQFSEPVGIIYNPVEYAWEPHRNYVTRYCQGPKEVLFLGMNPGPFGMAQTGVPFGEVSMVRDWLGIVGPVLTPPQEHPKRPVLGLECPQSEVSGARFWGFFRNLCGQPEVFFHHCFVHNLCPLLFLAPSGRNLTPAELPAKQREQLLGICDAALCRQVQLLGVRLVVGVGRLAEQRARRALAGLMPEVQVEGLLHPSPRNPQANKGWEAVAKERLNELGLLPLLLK
Description: Inhibition of SMUG1 by quantifying inhibition of SMUG1-mediated cleavage and dissociation of quenched duplex DNA oligonucleotides, measured as fluorescence at 594 nm. To generate a functional strand incision and increase turn-over this assay is coupled to APE1.

[3] = molecular target: N-glycosylase/DNA lyase (Homo sapiens) (UniProt O15527); conditions: Compound Concentration 10.0 uM;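 note: OGG1 cleavage of a quenched duplex DNA oligonucleotide, coupled to APE1 for strand incision, read as fluorescence at 594 nm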
Chain of N-glycosylase/DNA lyase (Homo sapiens) (O15527 whole entry): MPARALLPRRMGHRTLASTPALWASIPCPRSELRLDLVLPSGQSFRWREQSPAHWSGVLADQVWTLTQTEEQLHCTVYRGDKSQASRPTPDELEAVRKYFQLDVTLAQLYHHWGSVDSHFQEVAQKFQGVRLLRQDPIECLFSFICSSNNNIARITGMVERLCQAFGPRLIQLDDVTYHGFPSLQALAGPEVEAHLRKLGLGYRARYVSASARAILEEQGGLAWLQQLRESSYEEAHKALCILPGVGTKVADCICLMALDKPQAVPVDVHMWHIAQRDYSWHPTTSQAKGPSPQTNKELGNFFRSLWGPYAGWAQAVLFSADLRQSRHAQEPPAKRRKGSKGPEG
Description: Inhibition of OGG1 by quantifying inhibition of OGG1-mediated cleavage and dissociation of quenched duplex DNA oligonucleotides, measured as fluorescence at 594 nm. To generate a functional strand incision and increase turn-over this assay is coupled to APE1.

[4] = molecular target: G/T mismatch-specific thymine DNA glycosylase (Homo sapiens) (UniProt Q13569); conditions: Compound Concentration 10.0 uM, Hit No;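 note: human TDG cleavage of quenched duplex DNA oligonucleotides coupled to APE1, strand release read as fluorescence at 594 nm, inhibition of TDG activity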
Chain of G/T mismatch-specific thymine DNA glycosylase (Homo sapiens) (Q13569 whole entry): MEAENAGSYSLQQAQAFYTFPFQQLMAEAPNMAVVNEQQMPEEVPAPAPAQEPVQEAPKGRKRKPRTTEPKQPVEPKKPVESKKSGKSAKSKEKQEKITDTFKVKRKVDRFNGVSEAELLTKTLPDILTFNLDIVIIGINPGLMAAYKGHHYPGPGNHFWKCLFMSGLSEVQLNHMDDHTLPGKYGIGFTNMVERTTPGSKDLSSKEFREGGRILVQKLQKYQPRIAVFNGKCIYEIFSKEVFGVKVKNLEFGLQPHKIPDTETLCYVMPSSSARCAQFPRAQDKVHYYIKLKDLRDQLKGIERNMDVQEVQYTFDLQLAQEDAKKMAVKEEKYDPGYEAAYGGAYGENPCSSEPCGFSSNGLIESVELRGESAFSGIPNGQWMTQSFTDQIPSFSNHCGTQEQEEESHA
Description: Inhibition of TDG by quantifying inhibition of TDG-mediated cleavage and dissociation of quenched duplex DNA oligonucleotides, measured as fluorescence at 594 nm. To generate a functional strand incision and increase turn-over this assay is coupled to APE1.

[5] = molecular target: T2, Endonuclease 8-like 2 (Homo sapiens) (UniProt Q969S2); conditions: Compound Concentration 10.0 uM;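 note: fluorescence at 594 nm reports NEIL2 cutting and release of a quenched double-stranded DNA oligo substrate, reduced signal read as inhibition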
T2 sequence (whole entry): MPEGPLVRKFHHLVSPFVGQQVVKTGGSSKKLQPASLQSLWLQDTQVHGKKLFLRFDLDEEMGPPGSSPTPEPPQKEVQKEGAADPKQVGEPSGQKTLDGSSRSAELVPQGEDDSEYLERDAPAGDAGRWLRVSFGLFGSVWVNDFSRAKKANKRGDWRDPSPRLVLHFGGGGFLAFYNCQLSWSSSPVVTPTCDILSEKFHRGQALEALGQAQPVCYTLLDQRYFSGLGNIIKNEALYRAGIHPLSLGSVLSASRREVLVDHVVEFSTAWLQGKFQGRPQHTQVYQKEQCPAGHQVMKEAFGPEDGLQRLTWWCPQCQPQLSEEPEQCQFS
Description: Inhibition of NEIL2 by quantifying inhibition of NEIL2-mediated cleavage and dissociation of quenched duplex DNA oligonucleotides, measured as fluorescence at 594 nm.

[6] = molecular target: DNA-3-methyladenine glycosylase (Homo sapiens) (UniProt P29372); conditions: Compound Concentration 10.0 uM, Hit No;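 note: enzyme assay where MPG cuts a quenched duplex DNA oligonucleotide probe, paired with APE1 for strand incision and turnover, read as fluorescence at 594 nm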
Chain of DNA-3-methyladenine glycosylase (Homo sapiens) (P29372 whole entry, the tested form may be a part): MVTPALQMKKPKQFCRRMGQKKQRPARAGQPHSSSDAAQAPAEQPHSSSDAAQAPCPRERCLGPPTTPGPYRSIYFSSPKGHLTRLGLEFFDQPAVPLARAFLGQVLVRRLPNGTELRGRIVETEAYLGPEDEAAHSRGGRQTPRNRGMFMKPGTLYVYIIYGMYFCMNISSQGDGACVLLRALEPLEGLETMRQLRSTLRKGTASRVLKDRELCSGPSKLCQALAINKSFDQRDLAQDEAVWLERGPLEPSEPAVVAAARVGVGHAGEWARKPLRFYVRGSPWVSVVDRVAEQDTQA
Description: Inhibition of MPG by quantifying inhibition of MPG-mediated cleavage and dissociation of quenched duplex DNA oligonucleotides, measured as fluorescence at 594 nm. To generate a functional strand incision and increase turn-over this assay is coupled to APE1.

[7] = molecular target: Methyl-CpG-binding domain protein 4 (Homo sapiens) (UniProt O95243); conditions: Compound Concentration 10.0 uM, Hit No;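 note: MBD4 activity read as fluorescence at 594 nm from cleavage and release of a quenched duplex DNA oligonucleotide, with APE1 coupled to incise the strand and raise turnover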
Chain of Methyl-CpG-binding domain protein 4 (Homo sapiens) (O95243 whole entry, the tested form may be a part): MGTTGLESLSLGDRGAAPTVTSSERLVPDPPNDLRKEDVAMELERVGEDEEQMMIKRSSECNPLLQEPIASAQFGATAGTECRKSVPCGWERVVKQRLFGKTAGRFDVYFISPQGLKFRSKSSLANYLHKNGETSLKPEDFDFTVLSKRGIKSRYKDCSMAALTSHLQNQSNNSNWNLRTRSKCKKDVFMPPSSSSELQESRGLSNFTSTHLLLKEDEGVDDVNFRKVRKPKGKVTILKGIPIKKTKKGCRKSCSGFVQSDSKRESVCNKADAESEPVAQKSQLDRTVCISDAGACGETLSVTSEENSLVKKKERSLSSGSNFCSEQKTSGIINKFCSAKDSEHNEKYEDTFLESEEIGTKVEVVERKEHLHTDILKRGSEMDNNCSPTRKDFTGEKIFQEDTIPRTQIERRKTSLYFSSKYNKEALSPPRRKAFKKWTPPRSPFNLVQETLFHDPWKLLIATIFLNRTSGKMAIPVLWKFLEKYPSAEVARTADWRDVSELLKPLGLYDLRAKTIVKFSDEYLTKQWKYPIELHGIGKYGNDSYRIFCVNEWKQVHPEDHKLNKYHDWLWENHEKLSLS
Description: Inhibition of MBD4 by quantifying inhibition of MBD4-mediated cleavage and dissociation of quenched duplex DNA oligonucleotides, measured as fluorescence at 594 nm. To generate a functional strand incision and increase turn-over this assay is coupled to APE1.

[8] = molecular target: T3, Endonuclease III-like protein 1 (Homo sapiens) (UniProt P78549); conditions: Compound Concentration 10.0 uM, Hit No;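 note: enzyme assay tracking NTHL1 cutting and release of a quenched double-stranded DNA oligo substrate, read as fluorescence at 594 nm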
T3 sequence (whole entry): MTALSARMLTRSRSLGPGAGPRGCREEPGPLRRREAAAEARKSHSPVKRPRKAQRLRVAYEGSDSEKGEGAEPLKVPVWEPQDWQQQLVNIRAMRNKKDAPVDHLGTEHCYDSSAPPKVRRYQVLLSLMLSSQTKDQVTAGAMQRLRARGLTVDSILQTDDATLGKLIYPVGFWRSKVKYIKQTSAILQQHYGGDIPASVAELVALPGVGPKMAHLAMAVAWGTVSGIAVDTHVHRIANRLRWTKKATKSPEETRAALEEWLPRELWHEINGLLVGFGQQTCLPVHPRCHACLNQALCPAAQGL
Description: Inhibition of NTHL1 by quantifying inhibition of NTHL1-mediated cleavage and dissociation of quenched duplex DNA oligonucleotides, measured as fluorescence at 594 nm.

[9] = molecular target: Uracil-DNA glycosylase (Homo sapiens) (UniProt P13051); conditions: Compound Concentration 10.0 uM;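 note: UNG excision on a quenched double-stranded DNA oligo probe, with APE1 added for strand incision and turnover, read as fluorescence at 594 nm as strands separate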
Chain of Uracil-DNA glycosylase (Homo sapiens) (P13051 whole entry): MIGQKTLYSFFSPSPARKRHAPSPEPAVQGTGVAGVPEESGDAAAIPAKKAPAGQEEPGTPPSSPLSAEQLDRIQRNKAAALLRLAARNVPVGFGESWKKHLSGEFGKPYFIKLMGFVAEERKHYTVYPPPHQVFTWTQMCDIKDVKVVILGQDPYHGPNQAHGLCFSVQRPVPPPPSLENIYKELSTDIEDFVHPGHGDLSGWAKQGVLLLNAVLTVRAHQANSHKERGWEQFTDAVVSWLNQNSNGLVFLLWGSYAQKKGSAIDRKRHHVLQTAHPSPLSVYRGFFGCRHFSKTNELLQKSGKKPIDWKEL
Description: Inhibition of UNG by quantifying inhibition of UNG-mediated cleavage and dissociation of quenched duplex DNA oligonucleotides, measured as fluorescence at 594 nm. To generate a functional strand incision and increase turn-over this assay is coupled to APE1.

| SMILES | inhibition [1] [%] | inhibition ([2]; Hit No) [%] | inhibition ([3]; Hit No) [%] | inhibition [4] [%] | inhibition ([5]; Hit No) [%] | inhibition [6] [%] | inhibition [7] [%] | inhibition [8] [%] | inhibition ([2]; Hit Yes) [%] | inhibition ([3]; Hit Yes) [%] | inhibition ([9]; Hit Yes) [%] | inhibition ([9]; Hit No) [%] | inhibition ([5]; Hit Yes) [%] |
| --- | --- | --- | --- | --- | --- | --- | --- | --- | --- | --- | --- | --- | --- |
| Cc1cc(Cn2nnc3c(-c4ccco4)nc(N)nc32)ccc1N | -2.58 | -2.07 | 0.253 | 17.6 | 2.26 | -3.71 | 4.16 |  |  |  |  |  |  |
| CC[C@H]1CN2CCc3cc(OC)c(OC)cc3[C@@H]2C[C@@H]1C[C@H]1NCCc2cc(OC)c(OC)cc21 | -0.5 | -7.35 |  | -0.514 | 4.51 | -9.31 |  | 3.39 |  |  |  |  |  |
| Cc1nn(C)c(C)c1-c1cccc2c1CC[C@H](N(C)C)C2 | 1.87 |  | -7.75 | -4.55 | -0.234 | -9.58 |  | 6.32 |  |  |  |  |  |
| CC(=O)N[C@H](Cc1ccc2ccccc2c1)C(=O)N[C@H](Cc1ccc(Cl)cc1)C(=O)N[C@H](Cc1cccnc1)C(=O)N[C@@H](CO)C(=O)N[C@@H](Cc1ccc(NC(=O)[C@@H]2CC(=O)NC(=O)N2)cc1)C(=O)N[C@H](Cc1ccc(NC(N)=O)cc1)C(=O)N[C@@H](CC(C)C)C(=O)N[C@@H](CCCCNC(C)C)C(=O)N1CCC[C@H]1C(=O)N[C@H](C)C(N)=O (Ac-[d2Nal][dPhe(4-Cl)][d3Pal]S[Phe(4-NH2)](Dihydroorotyl(S))[dPhe(4-NHCONH2)]L[Lys(iPr)]P[dA]-NH2) |  |  |  | 56.9 | 25.7 | 22.6 |  | 7.79 | 53.4 | 98.4 | 86.3 |  |  |
| C[C@H](CO)Nc1nc(SCc2cccc(Cl)c2F)nc2[nH]c(=O)sc12 | 8.99 | 6.22 | 5.5 | 22 | -2.98 | 2.92 | 13.6 |  |  |  |  | -8.73 |  |
| CCOc1ccccc1C(=O)NCC1(N2CCN(CC)CC2)CCCCC1 | -3.55 | -8.6 |  | 5.23 | 3.22 | -0.78 | -3.81 |  |  |  |  | -8.16 |  |
| COC(=O)[C@H](CCCN=C(N)N)NC(=O)CCCc1c(-c2ccccc2)[nH]c2c(F)cc(F)cc12 | 5.58 |  | -3.54 | 16.3 |  | 5.31 |  | -5.41 |  |  |  | -5.65 | 38.2 |
| O=S1(=O)c2cccc3cccc(c23)N1CCCN1CCN(c2ccc(F)cc2)CC1 | -4.8 | 12.8 | 7.99 | 19 | -0.483 | -8.54 |  | 18.1 |  |  |  | -2.78 |  |
| Cc1[nH]cnc1CN1CCc2c(c3ccccc3n2C)C1=O | 11.2 | 3.41 | 1.31 | 19 |  | 3.5 | 11.9 |  |  |  |  | -6.85 |  |
| CSc1nc(NC2CCCC2)c([N+](=O)[O-])c(NC2CCCC2)n1 | 2.61 |  | -2.94 | 7.68 | 7.5 | -2.56 |  | 21 |  |  |  |  |  |
| O=C(NCC1(N2CCN(c3ccccc3)CC2)CCOCC1)c1cccnc1Sc1ccccc1 | -4.14 | 2.13 |  | -0.15 | -7.99 | 1.32 |  | 23.7 |  |  |  | 1.03 |  |
| OCc1cc(C(O)CNCCCCCCOCCCCc2ccccc2)ccc1O (centres undefined) | 8.39 |  | -5.95 | 6.25 | 4.01 | 0.951 |  | 11.4 |  |  |  | -9.38 |  |
| CNc1nc(NCc2ccc(NS(C)(=O)=O)cc2Cl)cc(-c2ccccn2)n1 | 3.5 | 11.2 | 15 | 18.1 | 7.25 | -5.26 |  | -9.07 |  |  |  | -9.82 |  |
| C[C@H](N)Cn1ccc2cc(F)c(Cl)cc21 |  |  |  | -0.256 |  | -5.64 | 4.93 | 6.35 |  |  |  | -6.21 |  |
| CCC(=O)NCC[C@@H]1CCc2ccc3c(c21)CCO3 | 10.6 | -9.19 | 6.47 | 9.54 | 6 | 4.81 | -9.72 |  |  |  |  | -9.69 |  |
